# Test results reported in patent US20050220726A1, “Use of sugar esters in cosmetic and/or pharmaceutical preparations” (priority 2003, published 2005).
# Columns and labels:
# Type in all cases: cell-based
# [1] = system: human keratinocytes; assay: Growth inhibition on human keratinocytes with EGF; conditions: with EGF 10 ng/ml, 3 days, control = 100, control with EGF = 167
# Description: Increased proliferation and differentiation of keratinocytes of the hair matrix leads to improved longer hair growth. The following test was carried out to determine the potential of the sugar esters for inhibiting hair growth which is visibly reflected in a reduction in the proliferation of human keratinocyte culture in vitro.
# To this end, human keratinocytes were cultivated in a standard cell culture medium containing foetal calf serum (FCS). After incubation for 1 day at 37° C./5% CO2, the growth medium was replaced by standard medium containing 10 ng/ml epidermal growth factor (EGF) and various concentrations of sugar esters dissolved in ethanol (1% by volume).
# After incubation for three days, the number of living cells was determined by determining the cell protein content by the Bradford method [Bradford, M. M., A rapid and sensitive method for the quantitation of microgram quantities of protein utilizing the principle of protein-dye binding. Anal. Biochem. (1977), Vol. 72, pp. 248-254].
# The results of Table 8 represent the values of triple determinations on two batches expressed in % against a control of cell culture medium without sugar ester.
# [2] = system: Staphylococcus aureus; assay: Agar dilution method (MIC determination); conditions: 18 to 24 h at 37° C.
# Description: (§1) The antibacterial activity of the test substances was tested by the diffusion method on agar plates or the agar dilution method. In this method, a round filter paper of defined diameter is first impregnated with the test solution and then applied to the surface of an agar plate inoculated beforehand with the test microorganisms. The size of the inhibition zones is then determined after defined times. In particular, it is possible by this method to determine the MIC (Minimum Inhibitory Concentration) as the lowest concentration of test substance with which complete inhibition of the microorganisms can be obtained. Agar dilution method (MIC determination). Various agars were prepared as described above, test substances were added in various concentrations, homogenized and dried. The Petri dishes were then inoculated with quantities of 2 μl of the bacterial suspension. After each drying step the Petri dishes were incubated for 18 to 24 h at 37° C. […] The results represent the averages of double determinations.
# [3] = system: Propionibacterium acnes; assay: Agar dilution method (MIC determination); conditions: 18 to 24 h at 37° C.
# Description: as §1
# [4] = system: Staphylococcus epidermidis; assay: Agar dilution method (MIC determination); conditions: 18 to 24 h at 37° C.
# Description: as §1
# [5] = system: human keratinocytes; assay: Protecting cells against UVB radiation (cell DNA, LDH and PGE2 release); conditions: + UV-B 50 mJ/cm^2; for Cell DNA: blank = 100, control + UV-B = 33; for LDH released / PGE2 released: control + UV-B = 100
# Description: UVB was selected as the stress factor because the rays produce cutaneous inflammation (erythemas, oedemas) by activating enzymes that release arachidonic acid, such as phospholipase A2 (PLA2) for example. […] The influence of UVB rays on keratinocytes was determined in vitro through the release of cytoplasmatic enzymes, such as LDH (lactate dehydrogenase) for example, which runs parallel to the cell damage and the formation of PGE2. […] The quantity of keratinocytes was determined after trypsination via a cell counter while the LDH concentration was enzymatically determined. The results are set out in Table 4, where they are expressed as the activity in %-rel. against a standard, and represent the mean value of two test series involving double determination.
# [6] = system: human leukaemic granulocytes; assay: Anti-inflammatory activity: respiratory burst of granulocytes (zymosan, luminol); conditions: + stimulation (zymosan), blank + stimulation = 100
# From the text: In the course of cutaneous inflammation, leucocytes, such as the polymorphonuclear neutrophilic granulocytes (PMNs) for example, are stimulated by peptides, such as cytokines for example, to emit messenger substances, such as leucotriene for example, which are released from activated or necrotic cells in the dermis. These activated PMNs release not only pro-inflammatory cytokinins, leucotrienes and proteases, but also ROS, such as superoxides and hypochlorite anions for example, of which the function is to destroy penetrated pathogenic germs or fungi. This activity of the PMNs during the inflammation is known as so-called respiratory burst. To investigate to what extent the test extracts can prevent or reduce the respiratory burst, a cell line of human leukaemic granulocytes of these PMNs was incubated together with the test substances at 37° C. and 5% by vol. CO2. After the respiratory burst had been initiated by addition of a yeast extract (zymosan) to the cell solution, the release of superoxide anions was determined through their reaction with luminol.
# [7] = system: human hair follicles; assay: Inhibition of hair growth, in vitro cultivated hair follicles; conditions: conc. 0.01 % w/v
# Description: The hair-growth-inhibiting effect of the sugar esters was determined by a method using in vitro cultivated human hair follicles in a growth medium. The growth of the hair follicles was tested in the presence and absence of fructose caprate. To this end, the hair follicles were incubated for 7 days at 37° C./5% CO2. The length of the cultivated hair follicles was recorded after 3 days and 7 days of cultivation. In a comparison example, the growth medium additionally contained 30 ng/ml IGF-1 insulin-like growth factor), a cytokine which stimulates hair follicle growth.
# Each of the tests was carried out with 10 hair follicles of a donor (5 donors in all).
# The results are set out in Table 9 and represent the mean values of the 50 hair follicles.
# [8] = system: melanocytes (B16 cell line); assay: Inhibition of melanin synthesis in B16 melanocytes; conditions: 3 days, blank value = 100
# Description: Melanin is the pigment responsible for the color of the skin and hair. It is formed in special organelles, the melanosomes, which occur in the melanocytes of the basal layer of the human epidermis. The biosynthesis of melanin begins with the amino acid tyrosine which is oxidized to DOPA (dihydroxyphenylalanine) in the presence of tyrosinase. The DOPA then polymerizes to melanin. […] After incubation for 3 days at 37° C./5% CO2, the nutrient medium was replaced by a solution containing the test substances in various concentrations. After incubation for another 3 days, the cell protein content (Bradford's method) and the content of synthesized melanin were determined through the optical density of the homogenizate at 475 nm. The results are expressed in % against a blank value and are set out in Table 7.
substance,measurement,setting,value
Fructose caprate,Cell protein content in %,[1]; conc. 0.001 % w/v,163%
same,Cell protein content in %,[1]; conc. 0.003 % w/v,130%
same,Cell protein content in %,[1]; conc. 0.01 % w/v,45%
same,"MIC, Staphylococcus aureus",[2],1250 µg/mL
same,"MIC, Propionibacterium acnes",[3],625 µg/mL
same,"MIC, Staphylococcus epidermidis",[4],1250 µg/mL
same,Cell DNA,[5]; conc. 0.001 % w/v,32 %-rel.
same,LDH released,[5]; conc. 0.001 % w/v,68 %-rel.
same,PGE2 released,[5]; conc. 0.001 % w/v,35 %-rel.
same,Cell DNA,[5]; conc. 0.003 % w/v,140 %-rel.
same,LDH released,[5]; conc. 0.003 % w/v,0 %-rel.
same,PGE2 released,[5]; conc. 0.003 % w/v,0 %-rel.
same,Cell counts,[6]; conc. 0.003 % w/v,97 %-rel.
same,ROS released,[6]; conc. 0.003 % w/v,87 %-rel.
same,Cell counts,[6]; conc. 0.01 % w/v,60 %-rel.
same,ROS released,[6]; conc. 0.01 % w/v,5 %-rel.
same,"Hair follicle growth, increase Day 3/day 0","[7]; + IGF (30 ng/ml IGF-1), control +21%",+15%
same,"Hair follicle growth, increase Day 7/day 0","[7]; + IGF (30 ng/ml IGF-1), control +45%",+25%
same,"Hair follicle growth, increase Day 3/day 0","[7]; without IGF, control +15%",+12%
same,"Hair follicle growth, increase Day 7/day 0","[7]; without IGF, control +32%",+21%
same,Cell melanin,[8]; conc. 0.003 % w/v,54 %-rel.
same,Cell proteins,[8]; conc. 0.003 % w/v,108 %-rel.
same,Cell melanin,[8]; conc. 0.006 % w/v,30 %-rel.
same,Cell proteins,[8]; conc. 0.006 % w/v,80 %-rel.
